Columns and labels:
B16-F10 (mouse melanoma) = assay: Alamar blue cytotoxicity assay, 72 h; assay type: cell-based; conditions: for IC50: read-out: IC50 and 95% CI, B16-F10, 72 h
Source text: (§1) The cell lines HepG2 (human hepatocellular carcinoma), HL-60 (human promyelocytic leukemia), K-562 (human chronic myelogenous leukemia), B16-F10 (mouse melanoma), MCF-7 (human breast carcinoma), HCT116 (human colon carcinoma), HSC-3 (human oral squamous cell carcinoma), SCC-4 (human oral squamous cell carcinoma), MRC-5 (human lung fibroblast), WT SV40 MEF (wild-type immortalized mouse embryonic fibroblast), and BAD KO SV40 MEF (BAD gene knockout immortalized mouse embryonic fibroblasts) were obtained from the American Type Culture Collection (ATCC, Manassas, VA, USA). Cells were cultured in RPMI 1640 medium (Gibco-BRL, Gaithersburg, MD, USA) with 10% fetal bovine serum (Life, Carlsbad, CA, USA), 2 mM L-glutamine (Vetec Química Fina, Duque de Caxias, RJ, Brazil) and 50 μg/mL gentamycin (Life). For all experiments, adherent cells were collected by treatment with 0.25% trypsin-EDTA solution (Gibco-BRL). All cell lines were cultured in flasks at 37°C in 5% CO2 and were subcultured every 3–4 days to maintain exponential growth. All cell lines were tested for mycoplasma using a mycoplasma staining kit (Sigma-Aldrich Co.) to validate that the cells that were used were free from contamination.
(§2) Cytotoxicity was measured colorimetrically using an Alamar blue method that was performed as previously described ([20], [21]). Cells were seeded in 96-well plates for all experiments (7 × 10^4 cells/mL for adherent cells or 3 × 10^5 cells/mL for suspension cells in 100 μL of medium) and incubated overnight at 37°C with 5% CO2 to allow for adherence. The complexes were dissolved in 0.5% dimethyl sulfoxide (DMSO, Vetec Química Fina) at eight different concentrations from 0.19 to 25 μg/mL and were added to each well and incubated for 72 h. The negative control was treated with the vehicle (0.5% DMSO) that was used to solubilize and dilute the complexes. […] Four (for cell lines) or 24 h (for PBMCs) before the end of incubation, 20 μL of a stock solution (0.312 mg/mL) of resazurin (Sigma-Aldrich Co.) was added to each well. Absorbance was measured at 570 and 600 nm using a SpectraMax 190 Microplate Reader (Molecular Devices, Sunnyvale, CA, USA).

[1] = test system: HCT116 (human colon carcinoma); assay: Alamar blue cytotoxicity assay, 72 h; assay type: cell-based; conditions: PBMCs vs HCT116
Source text: as §1, §2

[2] = test system: HL-60 (human promyelocytic leukemia); assay: Alamar blue cytotoxicity assay, 72 h; assay type: cell-based
Source text: as §1, §2

[3] = test system: HSC-3 (human oral squamous cell carcinoma); assay: Alamar blue cytotoxicity assay, 72 h; assay type: cell-based; conditions: PBMCs vs HSC-3
Source text: as §1, §2

[4] = test system: MCF-7 (human breast carcinoma); assay: Alamar blue cytotoxicity assay, 72 h; assay type: cell-based
Source text: as §1, §2

[5] = test system: SCC-4 (human oral squamous cell carcinoma); assay: Alamar blue cytotoxicity assay, 72 h; assay type: cell-based
Source text: as §1, §2

human topoisomerase IB = test system: human topoisomerase IB; design: method as in PMID 26795676; conditions: ref [18], [19]; cited from earlier work
[6] = test system: WT SV40 MEF (wild-type immortalized mouse embryonic fibroblast); assay: Alamar blue cytotoxicity assay, 72 h; assay type: cell-based; conditions: read-out: IC50 and 95% CI
[7] = test system: BAD KO SV40 MEF (BAD gene knockout immortalized mouse embryonic fibroblasts); assay: Alamar blue cytotoxicity assay, 72 h; assay type: cell-based; conditions: read-out: IC50 and 95% CI
advanced HCC = test system: advanced HCC; design: method as in PMID 18650514, PMID 28604110, PMID 29533189; conditions: ref [2]–[4]; cited from earlier work

## F[P-](F)(F)(F)(F)F.Nc1cc(N)nc([S-])n1.[Ru+2].c1ccc(-c2ccccn2)nc1.c1ccc(P(CCCCP(c2ccccc2)c2ccccc2)c2ccccc2)cc1 [Complex 3, [Ru(dmp)(bipy)(dppb)]PF6]
B16-F10 (mouse melanoma)
  IC50: 3.9 µM
[1]
  Selectivity index (SI = IC50 [noncancerous cells]/IC50 [cancer cells]): 2.2
[2]; MRC-5 vs HL-60
  Selectivity index (SI = IC50 [noncancerous cells]/IC50 [cancer cells]): 1.1
[2]; PBMCs vs HL-60
  Selectivity index (SI = IC50 [noncancerous cells]/IC50 [cancer cells]): 2.6
[3]
  Selectivity index (SI = IC50 [noncancerous cells]/IC50 [cancer cells]): 2.5
[4]; PBMCs vs MCF-7
  Selectivity index (SI = IC50 [noncancerous cells]/IC50 [cancer cells]): 1.5
[4]; read-out: IC50 and 95% CI, MCF-7, 72 h
  IC50: 8.7 µM
[5]; MRC-5 vs SCC-4
  Selectivity index (SI = IC50 [noncancerous cells]/IC50 [cancer cells]): 1.1
Human topoisomerase IB
  supercoiled DNA relaxation mediated by human topoisomerase IB: inhibit the supercoiled DNA relaxation

## F[P-](F)(F)(F)(F)F.O=C(O)c1ccc([S-])nc1.[Ru+2].c1ccc(-c2ccccn2)nc1.c1ccc(P(CCCCP(c2ccccc2)c2ccccc2)c2ccccc2)cc1 [Complex 4, [Ru(mpca)(bipy)(dppb)]PF6]
B16-F10 (mouse melanoma); PBMCs vs B16-F10
  Selectivity index (SI = IC50 [noncancerous cells]/IC50 [cancer cells]): 1.3
B16-F10 (mouse melanoma)
  IC50: 17.7 µM
[2]; PBMCs vs HL-60
  Selectivity index (SI = IC50 [noncancerous cells]/IC50 [cancer cells]): 2.6
[2]; read-out: IC50 and 95% CI, HL-60, 72 h
  IC50: 8.7 µM
Human topoisomerase IB
  supercoiled DNA relaxation mediated by human topoisomerase IB: inhibit the supercoiled DNA relaxation

## N.N.[Cl][Pt][Cl] [cisplatin, reference compound]
[6]
  IC50: 36.9 µM
[7]
  IC50: 47.3 µM

## O=C1[O][Pt]2([NH][C@@H]3CCCC[C@H]3[NH]2)[O]C1=O [oxaliplatin, reference compound]
[5]; read-out: IC50 and 95% CI, SCC-4, 72 h
  IC50: 7.7 µM

## CNC(=O)c1cc(Oc2ccc(NC(=O)Nc3ccc(Cl)c(C(F)(F)F)c3)cc2)ccn1 [sorafenib]
Advanced HCC
  prolongation of survival: 3 months
